Test results as given in PMC5951806, “Rapid labelling and covalent inhibition of intracellular native proteins using ligand-directed N-acyl-N-alkyl sulfonamide” (Nature Communications, 2018).

Experiments:
[1] = molecular target: T1, Folate transporter 1 (SLC19A1) (Homo sapiens, UniProt P41440); assay: TMT LC-MSMS of 11-labelled proteins; format: cell-based
T1 sequence (P41440 1-591): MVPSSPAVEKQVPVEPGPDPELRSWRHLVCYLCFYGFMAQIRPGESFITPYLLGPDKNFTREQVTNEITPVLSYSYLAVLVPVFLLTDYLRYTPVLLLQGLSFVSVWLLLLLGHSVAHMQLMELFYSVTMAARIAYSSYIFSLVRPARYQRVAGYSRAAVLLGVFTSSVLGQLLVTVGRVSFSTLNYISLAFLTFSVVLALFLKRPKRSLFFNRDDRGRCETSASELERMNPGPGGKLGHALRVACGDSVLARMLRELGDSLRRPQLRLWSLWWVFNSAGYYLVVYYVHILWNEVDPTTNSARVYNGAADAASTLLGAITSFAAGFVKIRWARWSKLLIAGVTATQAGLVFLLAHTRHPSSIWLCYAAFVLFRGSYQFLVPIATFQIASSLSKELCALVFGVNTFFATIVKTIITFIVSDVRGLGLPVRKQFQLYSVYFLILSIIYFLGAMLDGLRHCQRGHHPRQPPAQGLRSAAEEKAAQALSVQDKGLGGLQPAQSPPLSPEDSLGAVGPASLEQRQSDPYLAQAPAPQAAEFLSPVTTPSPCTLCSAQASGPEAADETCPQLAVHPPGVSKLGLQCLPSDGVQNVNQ
Text: (§1) The labelled proteins were enriched by immunoprecipitation with an anti-fluorescein antibody and tryptically digested in gel. Digested peptides were modified with Light- (L-), Medium- (M-), or Heavy- (H-) TMT reagent for samples treated with 11, 11 with PU-H71 (as competitive condition), or DMSO (vehicle), respectively, and mixed in a 1:1:1 ratio for LC-MSMS analysis. We performed three experimental replicates, in which proteins detected and quantified at least twice were selected as identified proteins. According to the related approach of Cravatt et al[44], the proteins having L/H (11/DMSO) ratios >5 were defined as 11-labelled proteins. […] On the basis of these criteria, we identified 6 proteins that react with 11, including three ligand-specific targets (Hsp90α (HSP90AA1), Hsp90β (HSP90AB1), and Grp94 (HSP90B1)) and three off-targets (Trifunctional enzyme subunit α (HADHA), Tubulin-α (TUBA1B), and ADP/ATP translocase 3 (SLC25A6)) (Fig. 5d, e and Supplementary Data 1). […] Grp94, a HSP90 isomer, was previously reported to be a PU-H71 specific target. TRAP-1, another Hsp90 isomer that can bind PU-H71, on the other hand, was not identified as 11-target by our criteria.
(§2) SKBR3 human breast cancer cells (2.0 × 10^6 cells) were seeded on a 10 cm dish and cultured for 3 days in McCoy’s 5A in a 5% CO2 humidified chamber at 37 °C. […] As competitive experiments, the labelling was conducted in the presence of PU-H71 (10 µM). After labelling, the cells were washed twice with PBS, and lysed with RIPA buffer. […] The supernatant was mixed with chilled acetone and incubated overnight at −80 °C. The protein precipitates were solubilized by sonication in 1 mL of RIPA buffer containing 1% SDS, and then 10-fold diluted with RIPA buffer to reduce SDS concentration to c.a. 0.1%. The protein solution (containing 1 mg of protein) was mixed with Protein G Sepharose 4 Fast Flow (GE Healthcare) and rotated at 4 °C for 1 h. After removal of the beads, the remaining supernatant was mixed with anti-fluorescein antibody (Abcam, ab19491, 7:10000) and rotated at 4 °C for 1 h, followed by addition of fresh Protein G Sepharose 4 Fast Flow and further incubation at 4 °C for 4 h. The beads were washed five times with RIPA buffer and once with PBS. Proteins were eluted from the beads by addition of 2 × sample buffer containing 100 mM DTT and boiling at 95 °C for 5 min. The samples were subjected to a 7.5% SDS–PAGE gel (Mini-PROTEAN TGX Gels, BioRad), and electrophoresed as the migration distance of dye front is about 10 mm. Each lane was excised (height, 10 mm), and treated with a 47.5% methanol / 47.5% pure water / 5% acetic acid for 20 min, a 50% methanol / 50% pure water for 10 min, and in pure water for 10 min. The gel pieces were dehydrated with 100% acetonitrile, and then swelled with 200 μL of 100 mM TEAB (triethylamine bicarbonate) buffer containing 10 mM DTT and heated at 56 °C for 30 min. The solutions were replaced with 200 µL of 100 mM TEAB buffer containing 55 mM iodoacetamide and incubated for 45 min in the dark. The gel pieces were washed with 100 mM TEAB buffer and dehydrated in acetonitrile. This step was repeated once. The gels were reswelled in 100 mM TEAB buffer containing 10 ng/μL Sequencing Grade Trypsin (Promega) and incubated overnight at 37 °C. To the gels, 50 μL of an extraction solution (50% acetonitrile, 0.1% TFA) was added. After 10 min incubation, the supernatants were collected to new tubes, and this process was repeated twice. Extracted peptides were dried in vacuo and reconstituted with 25 μL of 100 mM TEAB buffer.

[2] = molecular target: T2, Isoform 2 of Fructose-bisphosphate aldolase A (ALDOA) (Homo sapiens, UniProt P04075); assay: TMT LC-MSMS of 11-labelled proteins; format: cell-based
T2 sequence (P04075 2-364 limits assumed): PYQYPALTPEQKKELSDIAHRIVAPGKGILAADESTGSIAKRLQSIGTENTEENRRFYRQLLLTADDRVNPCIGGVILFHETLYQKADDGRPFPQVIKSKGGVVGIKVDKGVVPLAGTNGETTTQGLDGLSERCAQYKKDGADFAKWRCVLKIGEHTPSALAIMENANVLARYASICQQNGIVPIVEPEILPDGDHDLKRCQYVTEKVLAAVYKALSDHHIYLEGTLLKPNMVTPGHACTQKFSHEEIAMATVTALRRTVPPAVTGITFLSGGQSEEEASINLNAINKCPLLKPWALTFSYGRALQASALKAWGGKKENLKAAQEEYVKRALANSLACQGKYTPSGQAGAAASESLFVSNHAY
Text: as §1, §2

[3] = sheet Merged, SKBR3 cells, 11 0.5 µM 3 h vs DMSO
[4] = sheet Merged, SKBR3 cells, 11 0.5 µM 3 h vs with PU-H71 10 µM

`CC(=O)Oc1ccc2c(c1)Oc1cc(OC(C)=O)ccc1C21OC(=O)c2cc(C(=O)NCCOCCOCCNC(=O)CCCC(=O)N(CC#N)S(=O)(=O)c3ccc(C(=O)NCCCn4c(Sc5cc6c(cc5I)OCO6)nc5c(N)ncnc54)cc3)ccc21` [compound 11] was tested, and the “Abundance Ratio: (11) / (11 with PU-H71)” value ([1]; Exp3, SLC19A1) was 0.875, the “Abundance Ratio: (11) / (DMSO)” value ([1]; Exp3, SLC19A1) was 5.164 and the “Abundances (Grouped): 11” value ([1]; Exp3, SLC19A1) was 56.8. For the same compound, the “Abundances (Grouped): 11 with PU-H71” value ([1]; Exp3, SLC19A1) was 64.9, the “Abundance Ratio: (11) / (11 with PU-H71)” value ([1]; sheet Exp2, SLC19A1) was 1.054 and the “Abundance Ratio: (11) / (DMSO)” value ([1]; sheet Exp2, SLC19A1) was 3.79. For the same compound, the “Abundances (Grouped): 11” value ([1]; sheet Exp2, SLC19A1) was 111.8, the “Abundances (Grouped): 11 with PU-H71” value ([1]; sheet Exp2, SLC19A1) was 106.1 and the “Abundance Ratio: (11) / (DMSO)” value [1, 3] was 4.595. The “Abundance Ratio: (11) / (11 with PU-H71)” value [1, 4] was 0.985, the “Abundance Ratio: (11) / (11 with PU-H71)” value ([2]; Exp3, ALDOA) was 0.706 and the “Abundance Ratio: (11) / (DMSO)” value ([2]; Exp3, ALDOA) was 3.817. For the same compound, the “Abundances (Grouped): 11” value ([2]; Exp3, ALDOA) was 494.7, the “Abundances (Grouped): 11 with PU-H71” value ([2]; Exp3, ALDOA) was 700.9 and the “Abundance Ratio: (11) / (DMSO)” value ([2]; sheet Exp1, SKBR3 cells, 11 0.5 µM 3 h vs DMSO) was 4.85. The “Abundance Ratio: (11) / (11 with PU-H71)” value ([2]; sheet Exp1, SKBR3 cells, 11 0.5 µM 3 h vs with PU-H71 10 µM) was 0.675, the “Abundance Ratio: (11) / (11 with PU-H71)” value ([2]; sheet Exp2, ALDOA) was 0.724 and the “Abundance Ratio: (11) / (DMSO)” value ([2]; sheet Exp2, ALDOA) was 4.699. The “Abundances (Grouped): 11” value ([2]; sheet Exp2, ALDOA) was 363.2, the “Abundances (Grouped): 11 with PU-H71” value ([2]; sheet Exp2, ALDOA) was 502 and the “Abundance Ratio: (11) / (DMSO)” value [2, 3] was 4.85. The “Abundance Ratio: (11) / (11 with PU-H71)” value [2, 4] was 0.675.
